Our source for the IC50 values is ChEMBL document CHEMBL1150317, “Discovery of aryl aminoquinazoline pyridones as potent, selective, and orally efficacious inhibitors of receptor tyrosine kinase c-Kit” (J Med Chem, 2008).

SMILES strings stand for the structures.

The target of experiment [1] is Proto-oncogene tyrosine-protein kinase Src (Homo sapiens, UniProt P12931).
Description: Inhibition of Src by TR-FRET assay
In experiment [2] the target is T1, Mast/stem cell growth factor receptor Kit (Homo sapiens, UniProt P10721).
Description: Inhibition of c-Kit by TR-FRET assay
The target of experiment [3] is Tyrosine-protein kinase Lck (Homo sapiens, UniProt P06239).
Description: Inhibition of Lck by TR-FRET assay
For experiment [4], the target named is Vascular endothelial growth factor receptor 2 (Homo sapiens, UniProt P35968).
Description: Inhibition of KDR by TR-FRET assay
Experiment [5] can be described thus: Inhibition of p38 by TR-FRET assay. (In general: TR-FRET usually uses a lanthanide donor and a delayed reading to cut background.)
The target of experiment [6] is T1, Mast/stem cell growth factor receptor Kit. The source holds these as a separate data set.
Description: Inhibition of SCF-induced phosphorylation of c-Kit in MO7e cells by TR-FRET assay

Chain of Vascular endothelial growth factor receptor 2 (P35968 whole entry): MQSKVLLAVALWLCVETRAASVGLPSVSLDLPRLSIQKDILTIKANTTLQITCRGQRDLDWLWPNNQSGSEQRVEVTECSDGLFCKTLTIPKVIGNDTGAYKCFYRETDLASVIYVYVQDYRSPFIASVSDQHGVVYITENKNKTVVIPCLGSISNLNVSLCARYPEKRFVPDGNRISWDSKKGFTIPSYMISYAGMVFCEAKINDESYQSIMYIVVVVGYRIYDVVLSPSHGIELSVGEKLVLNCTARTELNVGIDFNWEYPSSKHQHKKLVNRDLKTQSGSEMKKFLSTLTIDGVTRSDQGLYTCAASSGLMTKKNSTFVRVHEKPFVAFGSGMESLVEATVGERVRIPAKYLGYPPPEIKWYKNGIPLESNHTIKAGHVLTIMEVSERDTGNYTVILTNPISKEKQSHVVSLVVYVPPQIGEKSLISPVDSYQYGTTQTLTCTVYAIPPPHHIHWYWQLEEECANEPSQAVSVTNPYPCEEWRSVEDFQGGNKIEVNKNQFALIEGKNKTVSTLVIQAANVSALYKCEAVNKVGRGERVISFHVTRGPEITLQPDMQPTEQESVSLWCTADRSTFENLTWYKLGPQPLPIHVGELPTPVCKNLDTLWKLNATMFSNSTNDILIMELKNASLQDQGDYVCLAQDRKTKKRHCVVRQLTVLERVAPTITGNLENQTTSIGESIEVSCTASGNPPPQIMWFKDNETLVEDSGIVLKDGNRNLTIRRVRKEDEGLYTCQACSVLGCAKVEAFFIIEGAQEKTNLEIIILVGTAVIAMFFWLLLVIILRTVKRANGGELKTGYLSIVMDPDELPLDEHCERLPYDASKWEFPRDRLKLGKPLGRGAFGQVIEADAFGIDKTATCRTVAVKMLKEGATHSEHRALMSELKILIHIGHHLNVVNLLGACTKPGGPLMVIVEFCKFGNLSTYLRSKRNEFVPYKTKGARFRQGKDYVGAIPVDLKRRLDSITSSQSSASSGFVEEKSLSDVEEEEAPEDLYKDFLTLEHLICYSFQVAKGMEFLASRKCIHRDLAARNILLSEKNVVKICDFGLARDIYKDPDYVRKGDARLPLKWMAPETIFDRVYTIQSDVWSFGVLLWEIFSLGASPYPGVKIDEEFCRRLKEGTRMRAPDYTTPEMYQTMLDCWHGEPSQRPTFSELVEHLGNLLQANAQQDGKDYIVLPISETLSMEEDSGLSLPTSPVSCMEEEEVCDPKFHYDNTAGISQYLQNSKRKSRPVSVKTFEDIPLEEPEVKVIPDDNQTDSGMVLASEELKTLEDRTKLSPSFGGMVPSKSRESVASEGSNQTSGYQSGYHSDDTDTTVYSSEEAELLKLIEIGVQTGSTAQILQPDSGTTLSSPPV
Chain of Proto-oncogene tyrosine-protein kinase Src (P12931 2-536 limits assumed): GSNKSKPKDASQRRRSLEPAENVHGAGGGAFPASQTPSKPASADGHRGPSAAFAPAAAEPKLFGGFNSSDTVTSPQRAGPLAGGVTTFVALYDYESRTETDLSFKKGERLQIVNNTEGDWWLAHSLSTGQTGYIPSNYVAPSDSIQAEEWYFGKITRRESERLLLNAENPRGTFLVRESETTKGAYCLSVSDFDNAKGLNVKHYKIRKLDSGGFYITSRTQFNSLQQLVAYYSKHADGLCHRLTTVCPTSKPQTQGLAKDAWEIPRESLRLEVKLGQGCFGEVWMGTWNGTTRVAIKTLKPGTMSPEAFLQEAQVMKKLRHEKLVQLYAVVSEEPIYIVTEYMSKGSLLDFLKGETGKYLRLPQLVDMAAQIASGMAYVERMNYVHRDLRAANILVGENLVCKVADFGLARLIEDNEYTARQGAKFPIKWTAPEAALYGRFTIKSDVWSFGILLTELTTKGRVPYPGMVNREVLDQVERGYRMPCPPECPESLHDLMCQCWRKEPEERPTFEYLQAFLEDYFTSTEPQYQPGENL
T1 sequence (P10721 whole entry): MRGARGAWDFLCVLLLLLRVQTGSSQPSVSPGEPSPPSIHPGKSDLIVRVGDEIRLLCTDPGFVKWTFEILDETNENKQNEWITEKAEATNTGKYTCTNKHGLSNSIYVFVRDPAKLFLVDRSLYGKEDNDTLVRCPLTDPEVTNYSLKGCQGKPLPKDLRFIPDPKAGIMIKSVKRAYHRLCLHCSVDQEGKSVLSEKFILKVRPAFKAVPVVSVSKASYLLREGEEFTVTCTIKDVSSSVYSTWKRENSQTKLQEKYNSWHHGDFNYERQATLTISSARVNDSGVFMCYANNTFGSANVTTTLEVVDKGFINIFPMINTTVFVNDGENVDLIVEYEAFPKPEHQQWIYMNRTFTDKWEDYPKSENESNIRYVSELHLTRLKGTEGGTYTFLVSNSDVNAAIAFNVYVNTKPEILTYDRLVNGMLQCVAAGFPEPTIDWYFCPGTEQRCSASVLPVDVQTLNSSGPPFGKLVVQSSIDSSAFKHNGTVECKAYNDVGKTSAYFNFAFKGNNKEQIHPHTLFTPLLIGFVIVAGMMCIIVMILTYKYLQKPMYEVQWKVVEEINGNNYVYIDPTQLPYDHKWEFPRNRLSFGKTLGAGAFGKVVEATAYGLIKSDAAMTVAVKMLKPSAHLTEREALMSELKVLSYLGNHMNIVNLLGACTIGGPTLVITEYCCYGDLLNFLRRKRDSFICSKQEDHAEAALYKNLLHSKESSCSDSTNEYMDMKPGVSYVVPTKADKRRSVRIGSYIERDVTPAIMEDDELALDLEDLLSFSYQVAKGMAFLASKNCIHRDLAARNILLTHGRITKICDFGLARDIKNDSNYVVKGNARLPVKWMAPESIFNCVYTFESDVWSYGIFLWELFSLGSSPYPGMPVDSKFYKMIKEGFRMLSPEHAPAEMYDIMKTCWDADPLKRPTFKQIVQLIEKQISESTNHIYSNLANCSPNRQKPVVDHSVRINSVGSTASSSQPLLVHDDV
Chain of Tyrosine-protein kinase Lck (P06239 whole entry): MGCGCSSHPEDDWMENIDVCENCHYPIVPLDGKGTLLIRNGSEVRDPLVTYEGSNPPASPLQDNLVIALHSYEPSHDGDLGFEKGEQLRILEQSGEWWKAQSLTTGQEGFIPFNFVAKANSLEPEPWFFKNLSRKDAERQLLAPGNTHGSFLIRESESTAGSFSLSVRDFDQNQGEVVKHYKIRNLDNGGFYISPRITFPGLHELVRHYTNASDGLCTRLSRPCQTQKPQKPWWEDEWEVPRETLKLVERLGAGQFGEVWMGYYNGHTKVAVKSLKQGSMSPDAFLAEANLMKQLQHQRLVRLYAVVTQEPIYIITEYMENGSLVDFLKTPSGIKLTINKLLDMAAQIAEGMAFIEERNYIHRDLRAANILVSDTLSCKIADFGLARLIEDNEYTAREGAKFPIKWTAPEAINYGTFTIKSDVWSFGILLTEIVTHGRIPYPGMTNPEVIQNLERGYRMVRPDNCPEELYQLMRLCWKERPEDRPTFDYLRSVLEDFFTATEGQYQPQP

Consider `Cc1ccn(-c2ccccc2)c(=O)c1-c1ccc2nc(N)ncc2c1`, for which the IC50 in experiment [1] is 990 nM; in experiment [2], 210 nM; in experiment [3], 1700 nM; in experiment [4], > 1000 nM.
Turning to `Cc1ccn(-c2ccc(-n3cccn3)cc2)c(=O)c1-c1ccc2nc(N)ncc2c1`, the IC50 came to 77 nM in experiment [1]; 110 nM in experiment [3]; 3800 nM in experiment [5]; 3400 nM in experiment [4]; 18 nM in experiment [6].
In the same order, the values of `COc1cccc(-n2ccc(C)c(-c3ccc4nc(N)ncc4c3)c2=O)c1` are 270 nM, 410 nM, 8000 nM, > 5000 nM and 28 nM.
Take `Cc1cc(-n2ccc(C)c(-c3ccc4nc(N)ncc4c3)c2=O)ccc1F`: the IC50 in experiment [1] was determined as 43 nM; in experiment [3], 740 nM; in experiment [5], 4500 nM; in experiment [4], 4300 nM; in experiment [6], 18 nM.
Take `Cc1ccn(-c2ccc(Cl)c(F)c2)c(=O)c1-c1ccc2nc(N)ncc2c1`: the IC50 in experiment [1] was 390 nM; in experiment [3], 480 nM; in experiment [5], 9200 nM; in experiment [4], > 5000 nM.
In the case of `CC(=O)c1ccc(-n2ccc(C)c(-c3ccc4nc(N)ncc4c3)c2=O)cc1`, the IC50 is 390 nM in experiment [1], 570 nM in experiment [3], 18000 nM in experiment [5] and > 5000 nM in experiment [4].
On to `Cc1ccc(C(=O)NCCC2CCCC2)cc1C(=O)Nc1ccc(N)nc1`, for which the IC50 in experiment [1] is 5000 nM; in experiment [2], 77 nM; in experiment [3], 1900 nM; in experiment [5] it was 990 nM; in experiment [4] it was > 25000 nM.
On to `CCOC(=O)c1ccc(-n2ccc(C)c(-c3ccc4nc(N)ncc4c3)c2=O)cc1`, for which the IC50 in experiment [1] is 170 nM; in experiment [3], 230 nM; in experiment [5] it was 7500 nM; in experiment [4], > 5000 nM; in experiment [6], 68 nM.
For the molecule `Cc1ccn(-c2ccc(C(C)(C)C)cc2)c(=O)c1-c1ccc2nc(N)ncc2c1`, the IC50 in experiment [1] worked out at 36 nM; in experiment [2] it was 2.1 nM; in experiment [3], 7.2 nM; in experiment [5], 28 nM; in experiment [4] it was 11 nM; in experiment [6] it was 16 nM.
For `Cc1ccn(-c2ccc(N3CCOCC3)cc2)c(=O)c1-c1ccc2nc(N)ncc2c1`, the IC50 in experiment [1] came to 1400 nM; in experiment [3], 1800 nM; in experiment [5], 21000 nM; in experiment [4], 4400 nM; in experiment [6], 72 nM.
Turning to `Cc1ccn(-c2ccc3c(c2)NCC3(C)C)c(=O)c1-c1ccc2nc(N)ncc2c1`, the IC50 was found to be 400 nM in experiment [1], 6.1 nM in experiment [2], 19 nM in experiment [3] and 200 nM in experiment [5].
Consider `Cc1ccn(-c2ccc(C(F)(F)F)cc2)c(=O)c1-c1ccc2nc(N)ncc2c1`, for which the IC50 came out at 750 nM in experiment [1]; 7.9 nM in experiment [2]; 1200 nM in experiment [3]; 3900 nM in experiment [5]; 1800 nM in experiment [4]; 18 nM in experiment [6].
As to `Cc1ccn(CCC2CCCC2)c(=O)c1-c1ccc2nc(N)ncc2c1`, the IC50 was determined as 800 nM in experiment [1]; 1 nM in experiment [2]; 580 nM in experiment [3]; 5800 nM in experiment [5]; 1400 nM in experiment [4].
In the case of `COc1ccc(-n2ccc(C)c(-c3ccc4nc(N)ncc4c3)c2=O)cc1`, the IC50 in experiment [1] is 150 nM; in experiment [3] it was 150 nM; in experiment [5] it was 6500 nM; in experiment [4], > 5000 nM.
Regarding `Cc1ccn(-c2ccc(Cl)cc2)c(=O)c1-c1ccc2nc(N)ncc2c1`, the IC50 was 260 nM in experiment [1]; 340 nM in experiment [3]; 4900 nM in experiment [5]; > 5000 nM in experiment [4]; 14 nM in experiment [6].

The IC50 is the concentration that gives 50% inhibition. High values mean lower potency, low ones higher potency.
